In PubChem BioAssay AID1745844 (Carcinogenic Potency Database (CPDB), 2022):
Activity calls are given as the source filed them. No rule for the calls is given here.

Test system: rodent lifetime carcinogenesis bioassay, tumor incidence TD50
Experiment: chronic cancer bioassays in animals – CPDB, compiled studies (AID 1745844)

[CH3][Hg][Cl]
TD50 (mouse, strain B6C3F1, females, in feed, site: kidney, lesion: renal-cell adenoma, dosed 104 weeks, study length 104 weeks): 65.8 mg/kg/day | TD50 (mouse, strain B6C3F1, males, in feed, site: kidney, lesion: renal-cell adenoma, dosed 104 weeks, study length 104 weeks): 9.83 mg/kg/day | TD50 (mouse, strain B6C3F1, males, in feed, site: kidney, lesion: renal-cell carcinoma, dosed 104 weeks, study length 104 weeks): 4.28 mg/kg/day | TD50 (mouse, strain B6C3F1, males, in feed, site: kidney, lesion: several types, types named in the paper, dosed 104 weeks, study length 104 weeks): 3.19 mg/kg/day | carcinogen call (mouse, strain Charles River CD1, females, in drinking water, site: any site (literature study), lesion: malignant tumor, dosed 143 weeks, study length 151 weeks): negative (inactive) | TD50 (mouse, strain Charles River CD1, females, in drinking water, site: any site (literature study), lesion: several types, types named in the paper, dosed 143 weeks, study length 151 weeks): 2.13 mg/kg/day (inactive) | carcinogen call (mouse, strain Charles River CD1, females, in drinking water, site: lung, lesion: one or several types, types not named, dosed 143 weeks, study length 151 weeks): negative (inactive) | TD50 (mouse, strain Charles River CD1, males, in drinking water, site: any site (literature study), lesion: malignant tumor, dosed 135 weeks, study length 159 weeks): 9.64 mg/kg/day (inactive) | TD50 (mouse, strain Charles River CD1, males, in drinking water, site: any site (literature study), lesion: several types, types named in the paper, dosed 135 weeks, study length 159 weeks): 5.63 mg/kg/day (inactive) | carcinogen call (mouse, strain Charles River CD1, males, in drinking water, site: lung, lesion: one or several types, types not named, dosed 135 weeks, study length 159 weeks): negative (inactive) | carcinogen call (mouse, strain ICR, females, in feed, site: kidney, lesion: adenoma, dosed 80 weeks, study length 80 weeks): negative (inactive) | carcinogen call (mouse, strain ICR, females, in feed, site: kidney, lesion: one or several types, types not named, dosed 52 weeks, study length 52 weeks): negative (inactive) | carcinogen call (mouse, strain ICR, females, in feed, site: kidney, lesion: one or several types, types not named, dosed 78 weeks, study length 78 weeks): negative (inactive) | carcinogen call (mouse, strain ICR, females, in feed, site: kidney, lesion: one or several types, types not named, dosed 104 weeks, study length 104 weeks): negative (inactive) | TD50 (mouse, strain ICR, females, in feed, site: liver, lesion: hemangioma, dosed 80 weeks, study length 80 weeks): 26.1 mg/kg/day (inactive) | carcinogen call (mouse, strain ICR, females, in feed, site: liver, lesion: hepatocellular adenoma, dosed 80 weeks, study length 80 weeks): negative (inactive) | carcinogen call (mouse, strain ICR, females, in feed, site: liver, lesion: hepatocellular carcinoma, dosed 80 weeks, study length 80 weeks): negative (inactive) | TD50 (mouse, strain ICR, females, in feed, site: lung, lesion: adenocarcinoma, dosed 80 weeks, study length 80 weeks): 11.6 mg/kg/day (inactive) | carcinogen call (mouse, strain ICR, females, in feed, site: lung, lesion: adenoma, dosed 80 weeks, study length 80 weeks): negative (inactive) | TD50 (mouse, strain ICR, males, in feed, site: kidney, lesion: adenocarcinoma, dosed 78 weeks, study length 78 weeks): 3.2 mg/kg/day | TD50 (mouse, strain ICR, males, in feed, site: kidney, lesion: adenocarcinoma, dosed 80 weeks, study length 80 weeks): 1.48 mg/kg/day | TD50 (mouse, strain ICR, males, in feed, site: kidney, lesion: adenocarcinoma, dosed 102 weeks, study length 104 weeks): 1.88 mg/kg/day | TD50 (mouse, strain ICR, males, in feed, site: kidney, lesion: adenoma, dosed 80 weeks, study length 80 weeks): 24.1 mg/kg/day | TD50 (mouse, strain ICR, males, in feed, site: kidney, lesion: several types, types named in the paper, dosed 78 weeks, study length 78 weeks): 0.896 mg/kg/day | TD50 (mouse, strain ICR, males, in feed, site: kidney, lesion: several types, types named in the paper, dosed 80 weeks, study length 80 weeks): 1.36 mg/kg/day | TD50 (mouse, strain ICR, males, in feed, site: kidney, lesion: several types, types named in the paper, dosed 102 weeks, study length 104 weeks): 1.69 mg/kg/day | TD50 (mouse, strain ICR, males, in feed, site: lung, lesion: adenocarcinoma, dosed 80 weeks, study length 80 weeks): 5.1 mg/kg/day | TD50 (rat, strain Sprague-Dawley, females, in feed, site: kidney, lesion: adenoma, dosed 130 weeks, study length 130 weeks): 15.7 mg/kg/day (inactive) | carcinogen call (rat, strain Sprague-Dawley, females, in feed, site: liver, lesion: one or several types, types not named, dosed 52 weeks, study length 52 weeks): negative (inactive) | carcinogen call (rat, strain Sprague-Dawley, females, in feed, site: liver, lesion: one or several types, types not named, dosed 78 weeks, study length 78 weeks): negative (inactive) | carcinogen call (rat, strain Sprague-Dawley, females, in feed, site: liver, lesion: one or several types, types not named, dosed 130 weeks, study length 130 weeks): negative (inactive) | carcinogen call (rat, strain Sprague-Dawley, males, in feed, site: liver, lesion: one or several types, types not named, dosed 52 weeks, study length 52 weeks): negative (inactive) | carcinogen call (rat, strain Sprague-Dawley, males, in feed, site: liver, lesion: one or several types, types not named, dosed 78 weeks, study length 78 weeks): negative (inactive) | carcinogen call (rat, strain Sprague-Dawley, males, in feed, site: liver, lesion: one or several types, types not named, dosed 130 weeks, study length 130 weeks): negative (inactive) | carcinogen call (rat, strain Wistar, females, in feed, site: liver, lesion: one or several types, types not named, dosed 104 weeks, study length 104 weeks): negative (inactive) | carcinogen call (rat, strain Wistar, males, in feed, site: liver, lesion: one or several types, types not named, dosed 104 weeks, study length 104 weeks): negative (inactive)

N#[N+]c1ccccc1
TD50 (hamster, strain Syrian Golden, females, by gavage, site: liver, lesion: Kupffer-cell sarcoma, dosed 90 weeks, study length 90 weeks): 66.1 mg/kg/day (inactive) | TD50 (hamster, strain Syrian Golden, females, by gavage, site: liver, lesion: cholangioma, dosed 90 weeks, study length 90 weeks): 293 mg/kg/day (inactive) | TD50 (hamster, strain Syrian Golden, females, by gavage, site: liver, lesion: hemangioma, dosed 90 weeks, study length 90 weeks): 66.1 mg/kg/day (inactive) | TD50 (hamster, strain Syrian Golden, males, by gavage, site: liver, lesion: hemangioma, dosed 90 weeks, study length 90 weeks): 293 mg/kg/day (inactive) | TD50 (mouse, strain Swiss albino, females, by gavage, site: lung, lesion: adenocarcinoma, dosed 52 weeks, study length 141 weeks): 39.4 mg/kg/day | TD50 (mouse, strain Swiss albino, females, by gavage, site: lung, lesion: adenoma, dosed 52 weeks, study length 141 weeks): 27.1 mg/kg/day | TD50 (mouse, strain Swiss albino, females, by gavage, site: lung, lesion: several types, types named in the paper, dosed 52 weeks, study length 141 weeks): 16.5 mg/kg/day | TD50 (mouse, strain Swiss albino, males, by gavage, site: lung, lesion: adenoma, dosed 52 weeks, study length 129 weeks): 14.8 mg/kg/day | TD50 (mouse, strain Swiss albino, males, by gavage, site: lung, lesion: several types, types named in the paper, dosed 52 weeks, study length 129 weeks): 12.7 mg/kg/day

CCOP(=S)(OCC)SC1OCCOC1SP(=S)(OCC)OCC (stereo unspecified)
TD50 (mouse, strain B6C3F1, females, in feed, site: any site (literature study), lesion: several types, types named in the paper, dosed 78 weeks, study length 90 weeks): 2590 mg/kg/day (inactive) | TD50 (mouse, strain B6C3F1, females, in feed, site: lung, lesion: alveolar/bronchiolar adenoma + alveolar/bronchiolar carcinoma, dosed 78 weeks, study length 90 weeks): 1820 mg/kg/day | carcinogen call (mouse, strain B6C3F1, males, in feed, site: any site (literature study), lesion: several types, types named in the paper, dosed 78 weeks, study length 90 weeks): negative (inactive) | TD50 (mouse, strain B6C3F1, males, in feed, site: lung, lesion: alveolar/bronchiolar adenoma + alveolar/bronchiolar carcinoma, dosed 78 weeks, study length 90 weeks): 628 mg/kg/day | carcinogen call (rat, strain Osborne-Mendel, females, in feed, site: any site (literature study), lesion: several types, types named in the paper, dosed 78 weeks, study length 111 weeks): negative (inactive) | carcinogen call (rat, strain Osborne-Mendel, males, in feed, site: any site (literature study), lesion: several types, types named in the paper, dosed 78 weeks, study length 111 weeks): negative (inactive)

Clc1ccc(C(c2ccccc2Cl)C(Cl)Cl)cc1 (stereo unspecified)
TD50 (mouse, strain B6AKF1, females, oral dosing, site: any site (literature study), lesion: several types, types named in the paper, dosed 76 weeks, study length 76 weeks): 102 mg/kg/day | TD50 (mouse, strain B6AKF1, females, oral dosing, site: lung, lesion: adenoma, dosed 76 weeks, study length 76 weeks): 236 mg/kg/day | TD50 (mouse, strain B6AKF1, males, oral dosing, site: any site (literature study), lesion: several types, types named in the paper, dosed 76 weeks, study length 76 weeks): 187 mg/kg/day | TD50 (mouse, strain B6AKF1, males, oral dosing, site: lung, lesion: adenoma, dosed 76 weeks, study length 76 weeks): 414 mg/kg/day | TD50 (mouse, strain B6AKF1, males, oral dosing, site: lung, lesion: carcinoma, dosed 76 weeks, study length 76 weeks): 467 mg/kg/day | TD50 (mouse, strain B6C3F1, males, oral dosing, site: all sites, lesion: reticulum-cell sarcoma, dosed 76 weeks, study length 76 weeks): 82.1 mg/kg/day | TD50 (mouse, strain B6C3F1, males, oral dosing, site: any site (literature study), lesion: several types, types named in the paper, dosed 76 weeks, study length 76 weeks): 38.5 mg/kg/day | TD50 (mouse, strain B6C3F1, males, oral dosing, site: liver, lesion: hepatoma, dosed 76 weeks, study length 76 weeks): 147 mg/kg/day | TD50 (mouse, strain B6C3F1, males, oral dosing, site: lung, lesion: adenoma, dosed 76 weeks, study length 76 weeks): 467 mg/kg/day

Cc1ccc(N=Nc2c(O)c(S(=O)(=O)O)cc3cc(S(=O)(=O)O)ccc23)c(C)c1
TD50 (mouse, strain DDY, females, in feed, site: liver, lesion: hepatocellular adenoma, dosed 81 weeks, study length 81 weeks): 21500 mg/kg/day | TD50 (mouse, strain DDY, females, in feed, site: liver, lesion: hepatocellular carcinoma, dosed 81 weeks, study length 81 weeks): 784 mg/kg/day | TD50 (mouse, strain DDY, males, in feed, site: liver, lesion: hepatocellular adenoma, dosed 81 weeks, study length 81 weeks): 8790 mg/kg/day | TD50 (mouse, strain DDY, males, in feed, site: liver, lesion: hepatocellular carcinoma, dosed 81 weeks, study length 81 weeks): 659 mg/kg/day | TD50 (rat, strain CFE, females, in feed, site: liver, lesion: nodular hyperplasia, dosed 104 weeks, study length 104 weeks): 704 mg/kg/day | TD50 (rat, strain CFE, males, in feed, site: liver, lesion: nodular hyperplasia, dosed 104 weeks, study length 104 weeks): 2910 mg/kg/day | TD50 (rat, strain Wistar albino, females, in feed, site: liver, lesion: hepatocellular carcinoma, dosed 52 weeks, study length 91 weeks): 2620 mg/kg/day | TD50 (rat, strain Wistar albino, females, in feed, site: liver, lesion: hepatocellular carcinoma, dosed 91 weeks, study length 91 weeks): 3270 mg/kg/day | TD50 (rat, strain Wistar albino, females, in feed, site: liver, lesion: several types, types named in the paper, dosed 52 weeks, study length 91 weeks): 233 mg/kg/day | carcinogen call (rat, strain Wistar albino, females, in feed, site: liver, lesion: several types, types named in the paper, dosed 91 weeks, study length 91 weeks): positive | TD50 (rat, strain Wistar, males, in feed, site: liver, lesion: liver-cell adenoma, dosed 65 weeks, study length 65 weeks): 1130 mg/kg/day
